According to patent US6221865A, “Inhibitors of protein isoprenyl transferases” (priority 1998, dated 2001):
Where a name gives a salt, the structure may show the parent alone.

Target: T1, protein farnesyltransferase (Rattus norvegicus, UniProt Q02293+Q04631)
T1 construct: The enzyme is purified according to Reiss, Y., et al., Cell, 62: 81-88 (1990), utilizing steps one through three; from tissue; host or cells: rat brain
Assay: Inhibition of farnesyltransferase (scintillation proximity assay, rat brain enzyme, biotin-K Ras B fragment substrate)
Type: biochemical
Details: for inhibition at 0.1 µM: read-out: % inhibition of farnesyltransferase at 1 × 10^-7 M; for inhibition at 0.1 µM / % inhibition of farnesyltransferase at 1 × 10^-7 M: 1 × 10^-7 M (Table 3); for inhibition at 1 µM: read-out: % inhibition of farnesyltransferase at 1 × 10^-6 M; for inhibition at 1 µM / % inhibition of farnesyltransferase at 1 × 10^-6 M: 1 × 10^-6 M (Table 2)
From the text: The ability of the compounds of the invention to inhibit protein farnesyltransferase or protein geranylgeranyltransferase can be measured according to the method of Moores, et al., J. Biol. Chem. 266: 14603 (1991) or the method of Vogt, et al., J. Biol. Chem. 270:660-664 (1995). In addition, procedures for determination of the inhibition of farnesylation of the oncogene protein Ras are described by Goldstein, et al., J. Biol. Chem., 266:15575-15578 (1991) and by Singh in U.S. Pat. No. 5,245,061.
In addition, in vitro inhibition of protein farnesyltransferase may be measured by the following procedure. Rat brain protein farnesyltransferase activity is measured using an Amersham Life Science commercial scintillation proximity assay kit and substituting a biotin-K Ras B fragment (biotin-[…]Ble-Met-CO2 H), […] final concentration, for the biotin-lamin substrate provided by Amersham. The enzyme is purified according to Reiss, Y., et al., Cell, 62: 81-88 (1990), utilizing steps one through three.
The % inhibition of protein farnesyltransferase was determined for representative compounds of the invention.

T1 sequence (Q02293 whole entry, one chain of several): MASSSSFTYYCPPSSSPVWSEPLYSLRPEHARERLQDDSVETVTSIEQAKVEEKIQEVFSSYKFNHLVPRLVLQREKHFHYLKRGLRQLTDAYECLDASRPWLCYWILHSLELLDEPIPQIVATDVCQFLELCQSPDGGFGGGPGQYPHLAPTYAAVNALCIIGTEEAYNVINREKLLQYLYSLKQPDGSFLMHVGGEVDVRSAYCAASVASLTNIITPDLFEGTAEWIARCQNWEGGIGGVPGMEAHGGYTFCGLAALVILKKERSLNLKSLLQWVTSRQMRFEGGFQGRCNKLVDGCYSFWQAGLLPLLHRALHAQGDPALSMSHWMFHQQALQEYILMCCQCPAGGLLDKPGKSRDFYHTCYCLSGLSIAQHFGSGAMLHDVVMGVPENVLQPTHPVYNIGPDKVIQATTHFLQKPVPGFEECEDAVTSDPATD

| Structure (SMILES) | inhibition at 1 µM [%] | % inhibition of farnesyltransferase at 1 × 10^-6 M [%] | other results |
| --- | --- | --- | --- |
| CSCC[C@H](NC(=O)c1ccc(CCc2ccc(Oc3ccccc3)cc2)cc1-c1ccccc1C)C(=O)O [Example 462, N-[4-(2-(4-phenoxyphenyl)ethyl)-2-(2-methylphenyl)benzoyl]methionine lithium salt] | – | – | inhibition at 0.1 µM: 91% |
| Cc1ccccc1-c1cc(CCc2ccc(Oc3ccccc3)cc2)ccc1C(=O)N[C@@H](CC[S+](C)[O-])C(=O)O (stereo partly shown) [Example 463, N-[4-(2-(4-phenoxyphenyl)ethyl)-2-(2-methylphenyl)benzoyl]-2-amino-4-methylsulfinylbutanoic acid lithium salt] | 91 | – | – |
| CSCC[C@H](NC(=O)c1ccc(/C=C/c2ccc3ccccc3c2)cc1-c1ccccc1C)C(=O)O [Example 465, N-[4-(2-naphth-2-ylethenyl)-2-(2-methylphenyl)benzoyl]methionine] | 92 | – | – |
| CSCC[C@H](NC(=O)c1ccc(/C=C/c2cccc3ccccc23)cc1-c1ccccc1C)C(=O)O [Example 466, N-[4-(2-naphth-1-ylethenyl)-2-(2-methylphenyl)benzoyl]methionine lithium salt] | 93 | – | – |
| CSCC[C@H](NC(=O)c1ccc(CCc2cccc3ccccc23)cc1-c1ccccc1C)C(=O)O [Example 467, N-[4-(2-naphth-1-ylethyl)-2-(2-methylphenyl)benzoyl]methionine lithium salt] | 97 | – | – |
| CSCC[C@H](NC(=O)c1ccc(CCc2ccc3ccccc3c2)cc1-c1ccccc1C)C(=O)O [Example 468, lithium salt] | 96 | – | – |
| CSCC[C@H](NC(=O)c1ccc(CCCc2ccc3ccccc3c2)cc1-c1ccccc1C)C(=O)O [Example 470, N-[4-(3-naphth-2-ylpropyl)-2-(2-methylphenyl)benzoyl]methionine lithium salt] | 95 | – | – |
| CSCC[C@H](NC(=O)c1ccc(/C=C/CC2CCCCC2)cc1-c1ccccc1C)C(=O)O [Example 471, N-[4-(3-cyclohexylprop-1-enyl)-2-(2-methylphenyl)benzoyl]methionine lithium salt] | 94 | – | – |
| CSCC[C@H](NC(=O)c1ccc(/C=C/CCc2ccccc2)cc1-c1ccccc1C)C(=O)O [Example 472, N-[4-(4-phenylbut-1-enyl)-2-(2-methylphenyl)benzoyl]methionine] | 97 | – | – |
| CSCC[C@H](NC(=O)c1ccc(CCCC(=O)c2ccc3ccccc3c2)cc1-c1ccccc1C)C(=O)O [Example 473, N-[4-(4-naphth-2-ylbut-4-on-1-yl)-2-(2-methylphenyl)benzoyl]methionine lithium salt] | 96 | – | – |
| CSCC[C@H](NC(=O)c1ccc(/C=C/CC(O)c2ccc3ccccc3c2)cc1-c1ccccc1C)C(=O)O (stereo partly shown) [Example 474, N-[4-(4-naphth-2-ylbut-4-ol-1-enyl)-2-(2-methylphenyl)benzoyl]methionine] | 92 | – | – |
| CSCC[C@H](NC(=O)c1ccc(NCC(CO)(Cc2ccccc2)Cc2ccccc2)cc1-c1ccccc1C)C(=O)O [Example 475] | – | 21 | – |
| CSCC[C@H](NC(=O)c1ccc(NCC(CO)Cc2ccccc2)cc1-c1ccccc1C)C(=O)O (stereo partly shown) [Example 476] | – | 91 | – |
| CSCC[C@H](NC(=O)c1ccc(CCCCC2CCCCC2)cc1-c1ccccc1C)C(=O)O [Example 478, N-[4-(4-cyclohexylbutyl)-2-(2-methyphenyl)benzoyl]methionine sodium salt] | 98 | – | – |
| CSCC[C@H](NC(=O)c1ccc(NCC(CO)CC2CCCCC2)cc1-c1ccccc1C)C(=O)O (stereo partly shown) [Example 479] | – | 95 | – |
| CSCC[C@H](NC(=O)c1ccc(C=CCCCc2ccccc2)cc1-c1ccccc1C)C(=O)O [Example 480, N-[4-(5-phenylpent-1-enyl)-2-(2-methylphenyl)benzoyl]methionine] | 87 | – | – |
| CSCC[C@H](NC(=O)c1ccc(NC(=O)c2cnccc2C(F)(F)F)cc1-c1ccccc1C)C(=O)O [Example 481] | – | 95 | – |
| CSCC[C@H](NC(=O)c1ccc(C#Cc2cncnc2)cc1-c1ccccc1C)C(=O)O [Example 493, N-[4-(2-pyrimidin-5-ylethynyl)-2-(2-methylphenyl)benzoyl]methionine lithium salt] | – | – | inhibition at 0.1 µM: 51% |
| CSCC[C@H](NC(=O)c1ccc(/C=C/c2cncnc2)cc1-c1ccccc1C)C(=O)O [Example 494, N-[4-(2-pyrimidin-5-ylethen-1-yl)-2-(2-methylphenyl)benzoyl]methionine lithium salt] | 96 | – | – |
| CSCC[C@H](NC(=O)c1ccc(/C=C/c2cnccn2)cc1-c1ccccc1C)C(=O)O [Example 495, N-[4-(2-pyrazin-2-ylethen-1-yl)-2-(2-methylphenyl)benzoyl]methionine lithium salt] | 95 | – | – |

| Structure (SMILES) | inhibition at 1 µM [%] | % inhibition of farnesyltransferase at 1 × 10^-6 M [%] | other results |
| --- | --- | --- | --- |
| CSCC[C@H](NC(=O)c1ccc(Sc2ccc3ccccc3c2)cc1-c1ccccc1C)C(=O)O [Example 497] | – | 94 | – |
| CSCC[C@H](NC(=O)c1ccc(SCCc2ccccc2)cc1-c1ccccc1C)C(=O)O [Example 498] | – | 98 | – |
| CSCC[C@H](NC(=O)c1ccc(NCCO)cc1-c1ccccc1)C(=O)O [Example 502] | – | 24 | – |
| CSCC[C@H](NC(=O)c1ccc(NC(=O)[C@@H](N)COCc2ccccc2)cc1-c1ccccc1)C(=O)O [Example 503] | – | 57 | – |
| CSCC[C@H](NC(=O)c1ccc(CN(Cc2ccccc2)Cc2ccco2)cc1-c1ccccc1C)C(=O)O [Example 504] | – | 90 | – |
| CSCC[C@H](NC(=O)c1ccc(CN(CCO)c2ccccc2)cc1-c1ccccc1)C(=O)O [Example 505] | – | 72 | – |
| CSCC[C@H](NC(=O)c1ccc(CN(CCc2ccccc2)c2ccccc2)cc1-c1ccccc1C)C(=O)O [Example 507] | – | 96 | – |
| CSCC[C@H](NC(=O)c1ccc(CN(CCCc2ccccc2)c2ccccc2)cc1-c1ccccc1C)C(=O)O [Example 508] | – | 95 | – |
| CSCC[C@H](NC(=O)c1ccc(CN(CC(c2ccccc2)c2ccccc2)c2ccccc2)cc1-c1ccccc1C)C(=O)O [Example 509] | – | 77 | – |
| CSCC[C@H](NC(=O)c1ccc(CN(CCC23CC4CC(CC(C4)C2)C3)c2ccccc2)cc1-c1ccccc1C)C(=O)O [Example 511] | – | – | % inhibition of farnesyltransferase at 1 × 10^-7 M: 82% |
| CSCC[C@H](NC(=O)c1ccc(CN(CCc2ccccc2)c2cncnc2)cc1-c1ccccc1C)C(=O)O [Example 518] | – | – | % inhibition of farnesyltransferase at 1 × 10^-8 M (1 × 10^-8 M (Table 4)): 90% |
| CSCC[C@H](NC(=O)c1ccc(CNCCc2c[nH]c3ccccc23)cc1-c1ccccc1C)C(=O)O [Example 519] | – | – | % inhibition of farnesyltransferase at 1 × 10^-7 M: 89% |
| CSCC[C@H](NC(=O)c1ccc(CN[C@H](CO)C2CCCCC2)cc1-c1ccccc1C)C(=O)O [Example 520] | – | – | % inhibition of farnesyltransferase at 1 × 10^-7 M: 97% |
| C=C(C)C1CC=C(COCc2ccc(C(=O)N[C@@H](CCSC)C(=O)O)c(-c3ccccc3C)c2)CC1 (stereo partly shown) [Example 521] | – | – | % inhibition of farnesyltransferase at 1 × 10^-7 M: 94% |
| CSCC[C@H](NC(=O)c1ccc(COC(Cc2ccccc2)Cc2ccccc2)cc1-c1ccccc1C)C(=O)[O-].[Li+] [Example 522] | – | – | % inhibition of farnesyltransferase at 1 × 10^-7 M: 93% |
| CSCC[C@H](NC(=O)c1ccc(CNC(Cc2ccccc2)Cc2ccccc2)cc1-c1ccccc1C)C(=O)O [Example 523] | – | – | % inhibition of farnesyltransferase at 1 × 10^-7 M: 97% |
| CSCC[C@H](NC(=O)c1ccc(CNC(CC2CCCCC2)CC2CCCCC2)cc1-c1ccccc1C)C(=O)O [Example 524] | – | – | % inhibition of farnesyltransferase at 1 × 10^-7 M: 99% |
| CSCC[C@H](NC(=O)c1ccc(CN[C@H](/C=C\CC(C)C)CC2CCCCC2)cc1-c1ccccc1C)C(=O)O [Example 526] | – | – | % inhibition of farnesyltransferase at 1 × 10^-7 M: 96% |
| CSCC[C@H](NC(=O)c1ccc(CN[C@H](CCCC(C)C)CC2CCCCC2)cc1-c1ccccc1C)C(=O)O [Example 527] | – | – | % inhibition of farnesyltransferase at 1 × 10^-7 M: 97% |

Second part, led by results:

| inhibition at 1 µM [%] | % inhibition of farnesyltransferase at 1 × 10^-6 M [%] | Structure (SMILES) | other results |
| --- | --- | --- | --- |
| – | 84 | CSCC[C@H](NC(=O)c1ccc(CN(CC23CC4CC(CC(C4)C2)C3)c2ccccc2)cc1-c1ccccc1C)C(=O)O [Example 510] | – |
| – | 94 | CSCC[C@H](NC(=O)c1ccc(CN(Cc2ccccc2)Cc2ccccc2)cc1-c1ccccc1C)C(=O)O [Example 512] | – |
| – | 96 | CSCC[C@H](NC(=O)c1ccc(CN(CCc2ccccc2)Cc2ccccc2)cc1-c1ccccc1C)C(=O)O [Example 513] | – |
| – | 94 | CSCC[C@H](NC(=O)c1ccc(CN(Cc2ccccc2)Cc2cccc(Oc3ccccc3)c2)cc1-c1ccccc1C)C(=O)O [Example 514] | – |
| – | 72 | CSCC[C@H](NC(=O)c1ccc(CN(CCO)Cc2ccccc2)cc1-c1ccccc1)C(=O)O [Example 515] | – |
| – | 95 | CSCC[C@H](NC(=O)c1ccc(CN(C)CCc2ccccc2)cc1-c1ccccc1C)C(=O)O [Example 516] | – |
| – | 99 | CCOC[C@H](CC1CCCCC1)OCc1ccc(C(=O)N[C@@H](CCSC)C(=O)O)c(-c2ccccc2C)c1 [Example 525] | – |
